# Assay results as given in the supplement of paper PMC10307832.
# Experiments:
# Experiment in all cases: relative viability (nuclei count vs DMSO), 5 days (fraction); higher = more cells survive
# VE-821 + Tozasertib = compound: CS(=O)(=O)c1ccc(-c2cnc(N)c(C(=O)Nc3ccccc3)n2)cc1 [VE-821] + Cc1cc(Nc2cc(N3CCN(C)CC3)nc(Sc3ccc(NC(=O)C4CC4)cc3)n2)n[nH]1 [Tozasertib] (partner 0.1 µM)
# Summary of the method: (§1)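 Relative viability was taken as the ratio of nuclei in treated wells to nuclei in vehicle wells. Lung cancer cell lines in 1536-well plates received compounds by pin tool one day after seeding, either one drug alone or a fixed anchor-drug dose plus five library-drug doses (not always all listed) in √10 steps. Nuclei were counted on 4× images after 5 days of treatment, and values are medians of duplicate plates.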
# Ruxolitinib + Pictilisib = compound: N#CC[C@H](C1CCCC1)n1cc(-c2ncnc3[nH]ccc23)cn1 [Ruxolitinib] + CS(=O)(=O)N1CCN(Cc2cc3nc(-c4cccc5[nH]ncc45)nc(N4CCOCC4)c3s2)CC1 [Pictilisib] (partner 1 µM)
# Summary of the method: as §1
# Ruxolitinib + Vorinostat = compound: N#CC[C@H](C1CCCC1)n1cc(-c2ncnc3[nH]ccc23)cn1 [Ruxolitinib] + O=C(CCCCCCC(=O)Nc1ccccc1)NO [Vorinostat] (partner 1 µM)
# Summary of the method: as §1
# Vismodegib + OSI-027 = compound: CS(=O)(=O)c1ccc(C(=O)Nc2ccc(Cl)c(-c3ccccn3)c2)c(Cl)c1 [Vismodegib] + COc1cccc2cc(-c3nc([C@H]4CC[C@H](C(=O)O)CC4)n4ncnc(N)c34)[nH]c12 [OSI-027] (partner 0.5 µM)
# Summary of the method: as §1
Cell Line,relative viability (VE-821 + Tozasertib; first compound 0.08 µM),relative viability (VE-821 + Tozasertib; first compound 0.253 µM),relative viability (VE-821 + Tozasertib; first compound 0.8 µM),relative viability (VE-821 + Tozasertib; first compound 2.53 µM),relative viability (VE-821 + Tozasertib; first compound 8 µM),relative viability (Ruxolitinib + Pictilisib; first compound 0.08 µM),relative viability (Ruxolitinib + Pictilisib; first compound 0.253 µM),relative viability (Ruxolitinib + Pictilisib; first compound 0.8 µM),relative viability (Ruxolitinib + Pictilisib; first compound 2.53 µM),relative viability (Ruxolitinib + Pictilisib; first compound 8 µM),relative viability (Ruxolitinib + Vorinostat; first compound 0.08 µM),relative viability (Ruxolitinib + Vorinostat; first compound 0.253 µM),relative viability (Ruxolitinib + Vorinostat; first compound 0.8 µM),relative viability (Ruxolitinib + Vorinostat; first compound 2.53 µM),relative viability (Ruxolitinib + Vorinostat; first compound 8 µM),relative viability (Vismodegib + OSI-027; first compound 0.08 µM),relative viability (Vismodegib + OSI-027; first compound 0.253 µM),relative viability (Vismodegib + OSI-027; first compound 0.8 µM),relative viability (Vismodegib + OSI-027; first compound 2.53 µM),relative viability (Vismodegib + OSI-027; first compound 8 µM)
201T,1.04,0.988,0.896,0.929,0.636,0.745,0.687,0.75,0.826,0.8,1.12,1.16,1.21,1.25,1.17,0.834,0.741,0.733,0.731,0.747
A549,–,–,–,–,–,0.579,0.529,0.576,0.407,0.233,–,–,–,–,–,–,–,–,–,–
A-427,0.231,0.186,0.217,0.192,0.144,0.742,0.749,0.773,0.371,0.629,0.906,0.879,0.9,0.974,0.841,0.471,0.464,0.446,0.405,0.484
ABC-1,0.201,0.17,0.15,0.181,0.16,0.875,0.742,0.867,0.705,0.738,–,1.18,1.4,0.825,0.907,0.638,0.392,0.581,0.403,0.52
BEN,0.591,0.579,0.495,0.631,0.589,0.494,0.583,0.647,0.53,0.584,0.524,0.557,0.653,0.519,0.586,0.336,0.308,0.272,0.294,0.311
CAL-12T,0.307,0.227,0.189,0.207,0.147,–,0.355,0.416,0.435,0.471,0.86,0.693,0.848,0.653,0.69,0.776,0.462,0.774,0.636,0.654
COR-L23,0.195,0.168,0.131,0.142,0.14,0.755,0.748,0.795,0.625,0.531,0.579,0.347,0.463,0.403,0.287,0.753,0.743,0.742,0.793,0.751
COR-L 105,0.37,0.373,0.374,0.284,0.333,0.379,0.389,0.407,0.344,0.334,–,0.721,0.785,0.488,0.615,0.683,0.63,0.771,0.739,0.658
Calu-6,–,–,–,–,–,0.99,0.943,0.958,0.828,0.667,–,–,–,–,–,–,–,–,–,–
ChaGo-K-1,0.219,0.248,0.219,0.201,0.22,–,0.555,0.668,0.776,0.727,0.771,0.764,0.707,0.62,0.637,0.663,0.546,0.554,0.619,0.516
EBC-1,–,–,–,–,–,0.386,0.309,0.583,0.353,0.32,–,–,–,–,–,–,–,–,–,–
EKVX,0.45,0.346,0.352,0.39,0.309,0.323,0.385,0.451,0.44,0.521,0.57,0.744,0.719,0.628,0.588,0.677,0.67,0.676,0.715,0.731
EMC-BAC-2,0.344,0.306,0.322,0.253,0.277,0.534,0.495,0.57,0.495,0.384,0.412,0.432,0.443,0.621,0.279,0.423,0.378,0.419,0.394,0.395
EPLC-272H,0.363,0.26,0.374,0.211,0.154,0.141,0.36,0.336,0.281,0.268,0.586,0.447,0.463,0.249,0.337,0.291,0.273,0.279,0.278,0.275
H3255,0.74,0.777,0.633,0.639,0.612,0.206,0.435,0.516,0.427,0.48,–,0.9,0.892,0.791,0.382,0.58,0.634,0.701,0.579,0.522
HARA,0.109,0.111,0.106,0.112,0.0878,0.467,0.472,0.404,0.426,0.328,0.594,0.576,0.566,0.488,0.512,0.702,0.47,0.529,0.492,0.466
HCC-15,0.451,0.361,0.322,0.347,0.309,0.701,0.77,0.789,0.703,0.737,0.903,0.862,0.864,0.741,0.776,0.753,0.664,0.654,0.738,0.631

Cell Line,relative viability (VE-821 + Tozasertib; first compound 0.08 µM),relative viability (VE-821 + Tozasertib; first compound 0.253 µM),relative viability (VE-821 + Tozasertib; first compound 0.8 µM),relative viability (VE-821 + Tozasertib; first compound 2.53 µM),relative viability (VE-821 + Tozasertib; first compound 8 µM),relative viability (Ruxolitinib + Pictilisib; first compound 0.08 µM),relative viability (Ruxolitinib + Pictilisib; first compound 0.253 µM),relative viability (Ruxolitinib + Pictilisib; first compound 0.8 µM),relative viability (Ruxolitinib + Pictilisib; first compound 2.53 µM),relative viability (Ruxolitinib + Pictilisib; first compound 8 µM),relative viability (Ruxolitinib + Vorinostat; first compound 0.08 µM),relative viability (Ruxolitinib + Vorinostat; first compound 0.253 µM),relative viability (Ruxolitinib + Vorinostat; first compound 0.8 µM),relative viability (Ruxolitinib + Vorinostat; first compound 2.53 µM),relative viability (Ruxolitinib + Vorinostat; first compound 8 µM),relative viability (Vismodegib + OSI-027; first compound 0.08 µM),relative viability (Vismodegib + OSI-027; first compound 0.253 µM),relative viability (Vismodegib + OSI-027; first compound 0.8 µM),relative viability (Vismodegib + OSI-027; first compound 2.53 µM),relative viability (Vismodegib + OSI-027; first compound 8 µM)
HCC-44,1.08,0.865,0.841,0.907,0.708,0.594,0.649,0.686,0.463,0.307,1.11,1.06,1.03,1.04,1.05,0.532,0.482,0.453,0.526,0.611
HCC-78,0.461,0.362,0.385,0.372,0.321,0.162,0.14,0.207,0.255,0.216,0.412,0.455,0.429,0.439,0.395,0.372,0.371,0.382,0.347,0.347
HCC-366,0.0768,0.0713,0.0434,0.0568,0.0298,0.154,0.134,0.161,0.094,0.101,0.34,0.321,0.423,0.192,0.167,1.32,0.888,0.77,0.929,0.775
HCC-827,0.427,0.424,0.391,0.394,0.372,0.654,0.973,0.919,0.906,0.944,–,0.871,0.767,0.751,0.84,0.759,0.708,0.726,0.767,0.789
HOP-62,0.399,0.404,0.349,0.382,0.361,–,0.743,0.876,0.63,0.839,0.606,0.59,0.688,0.594,0.685,0.841,0.812,0.793,0.8,0.899
IA-LM,–,–,–,–,–,0.349,0.35,0.387,0.544,0.46,0.896,1.12,1.17,0.929,1.19,–,–,–,–,–
LC-2-ad,0.427,0.597,0.504,0.565,0.426,0.41,0.313,0.519,0.362,0.211,0.798,0.715,0.728,0.698,0.64,0.975,0.786,0.824,0.809,0.676
NCI-H522,0.633,0.63,0.537,0.453,0.575,–,–,–,–,–,0.949,0.868,0.978,0.873,0.859,0.805,0.742,0.672,0.659,0.812
NCI-H1299,–,–,–,–,–,0.773,0.761,0.883,0.716,0.504,–,–,–,–,–,–,–,–,–,–
NCI-H1563,–,–,–,–,–,0.653,0.669,0.691,0.623,0.661,–,–,–,–,–,0.757,0.734,0.767,0.694,0.809
NCI-H1623,0.481,0.404,0.398,0.463,0.364,–,–,–,–,–,–,–,–,–,–,0.476,0.415,0.461,0.419,0.456
NCI-H1648,0.415,0.608,0.518,0.61,0.345,–,–,–,–,–,0.331,0.408,0.984,0.748,0.895,0.22,0.27,0.29,0.258,0.207
NCI-H1703,–,–,–,–,–,0.255,0.265,0.232,0.24,0.205,–,–,–,–,–,–,–,–,–,–
NCI-H1792,–,–,–,–,–,0.259,0.289,0.278,0.197,0.214,–,–,–,–,–,0.766,0.75,0.606,0.679,0.623
NCI-H2342,0.434,0.489,0.45,0.415,0.365,–,–,–,–,–,0.82,0.706,0.833,0.724,0.823,0.698,0.651,0.522,0.627,0.637
SW 900,0.604,0.493,0.38,0.333,0.248,–,–,–,–,–,0.587,0.746,0.774,0.707,0.881,0.62,0.395,0.432,0.616,0.637
